Source: patent US10175228B2, “Method of using transmembrane channel-like protein 6 (TMC6) protein to identify substances affecting salty taste” (priority 2016, dated 2019)

Columns and labels:
[1] = tested on: chimeric TMC6 protein of mouse and Aotus nancymaae; experiment: Calcium imaging of CHO-K1 cells expressing the mouse/Aotus nancymaae chimeric TMC6 gene; assay type: cell-based; settings: stimulation with high-concentration NaCl solution for 60 sec, 21 cells
Source text: The nucleotide sequence of the CDS of the chimeric TMC6 gene cloned into Mouse-Aotus nancymaae chimera TMC6 2A-YC260TM in pcDNA3.1(−) was confirmed to consist of an upstream part identical to positions 1 to 45 of the nucleotide sequence of mRNA of the mouse TMC6 gene (NM_145439) and a downstream part identical to positions 52 to 2421 of the nucleotide sequence of mRNA of the Aotus nancymaae TMC6 gene (XM 012453598) registered in NCBI by sequencing analysis. The chimeric TMC6 gene encodes a chimeric TMC6 protein consisting of the amino acid sequence of positions 1 to 15 of the mouse TMC6 protein (SEQ ID NO: 26) and the amino acid sequence of positions 18 to 807 of the Aotus nancymaae TMC6 protein (SEQ ID NO: 1). The nucleotide sequence of Mouse-Aotus nancymaae chimera TMC6 2A-YC260TM in pcDNA3.1(−) is shown as SEQ ID NO: 63. […]
CHO-K1 cells were transfected with Macaca mulatta TMC6-2A-YC260TM in pcDNA3.1(−), Pongo abelii TMC6-2A-YC260TM in pcDNA3.1(−), Mouse-Aotus nancymaae chimera TMC6 2A-YC260TM in pcDNA3.1(−), or YC2.60-pcDNA, to prepare TMC6-expressing cells (cells expressing the Macaca mulatta TMC6 gene, the Pongo abelii TMC6 gene, or the mouse/Aotus nancymaae chimeric TMC6 gene, in combination with the YC2.60 gene) and control cells (cells expressing the YC2.60 gene). The prepared cells were stimulated, and activation of the cells was measured. […]

[2] = tested on: Macaca mulatta TMC6 protein; experiment: Calcium imaging of CHO-K1 cells expressing the Macaca mulatta TMC6 gene; assay type: cell-based; settings: stimulation with high-concentration NaCl solution for 60 sec, 28 cells
Source text: CHO-K1 cells were transfected with Macaca mulatta TMC6-2A-YC260TM in pcDNA3.1(−), Pongo abelii TMC6-2A-YC260TM in pcDNA3.1(−), Mouse-Aotus nancymaae chimera TMC6 2A-YC260TM in pcDNA3.1(−), or YC2.60-pcDNA, to prepare TMC6-expressing cells (cells expressing the Macaca mulatta TMC6 gene, the Pongo abelii TMC6 gene, or the mouse/Aotus nancymaae chimeric TMC6 gene, in combination with the YC2.60 gene) and control cells (cells expressing the YC2.60 gene). The prepared cells were stimulated, and activation of the cells was measured. The procedure was as follows.
First, a plurality of sterile cover glasses (18×32 mm, Matsunami Glass) were placed at the bottom of a culture dish having a diameter of 100 mm so as not to be overlapped to each other. CHO-K1 cells (ATCC) were inoculated thereto while adjusting the number of the cells to obtain 60% confluence, and cultured for 24 hr. Then, medium exchange was carried out. As the medium, 12 mL of Ham's F-12K (Kaighn's) (Life Technologies) containing 10% fetal bovine serum (Life Technologies) was used. […]
Change of the intracellular calcium concentration was measured and analyzed with analysis software equipped with FV1200. An average YFP/CFP value of all the cell of which the YFP/CFP value was changed by stimulation with the ATP stimulation solution was calculated at each measurement. […]

[Cl-].[Na+] [NaCl, sodium chloride]
change of average YFP/CFP value (intracellular calcium concentration) [1]: increase | change of average YFP/CFP value (intracellular calcium concentration) [2]: increase
